Measured values reported in patent publication US9012397B2 (priority 2011, dated 2015).

Tested on: unidentified sting
Set-up: species or system human
Conditions: in vivo

Substance: pGLU-ASN-TRP-LYS-C8 [ZEP3]
- clinical outcome: relief from the itching sensation within a number of minutes
- time until redness disappeared: 2 days
